Measurements from patent US9156801B2, “2-substituted oleanolic acid derivative, method preparing for same, and application thereof” (HANGZHOU BENSHENG PHARMACEUTICAL CO., LTD., priority 2011, dated 2015).
Converted amounts (≈) assume the structure as drawn.

Legend:
Kasumi-1 cell line = assay: leukemia cell growth inhibition, MTT; format: cell-based; settings: Homo sapiens; for inhibition at 16 µg/mL: Kasumi-1, 16 μg/mL compound, 72 h, read-out: IR (cell proliferation inhibition rate); for IC50: Kasumi-1, 72 h
Source text: (§1) Leukemia cell lines: leukemia cell lines: K562/adr (drug-resistant, chronic myeloid leukemia, CML), NB4 (acute promyelocytic leukemia, AML), Kasumi-1 (acute myeloid leukemia M2 type, AML-M2), Jurkat (acute lymphoblastic leukemia, ALL), all of which are donated by Cancer Research Institute of Zhejiang University, China; and H9 (acute lymphoblastic leukemia, ALL), which is purchased from China Center for Type Culture Collection (CCTCC).
(§2) Obtaining 6000 well-growing leukemia cells and inoculating them into wells of a 96-well cell culture plate. The culture medium is the 1640 cell culture medium containing 10% fetal bovine serum. After adding the 2-substituted oleanolic acid derivatives of different concentrations and mixing uniformly, placing the plate in a carbon dioxide cell incubator (5% CO2) at 37° C. and incubated for 72 hours. Then the relative number of viable cells is determined by MTT method. In this experiment, cell proliferation inhibition rate in control group (not treated with any compound) is set as 0%.

H9 cell line = assay: leukemia cell growth inhibition, MTT; format: cell-based; settings: Homo sapiens; for IC50: H9, 72 h; for inhibition at 16 µg/mL: H9, 16 μg/mL compound, 72 h, read-out: IR (cell proliferation inhibition rate)
Source text: as §1, §2

K562/adr cell line = assay: leukemia cell growth inhibition, MTT; format: cell-based; settings: Homo sapiens, 72 h; for IC50: K562/Adr; for inhibition at 16 µg/mL: K562/adr, 16 μg/mL compound, read-out: IR (cell proliferation inhibition rate)
Source text: as §1, §2

Jurkat cell line = assay: leukemia cell growth inhibition, MTT; format: cell-based; settings: Homo sapiens, 72 h; for inhibition at 16 µg/mL: 16 μg/mL compound, read-out: IR (cell proliferation inhibition rate)
Source text: as §1, §2

NB4 cell line = assay: leukemia cell growth inhibition, MTT; format: cell-based; settings: Homo sapiens, NB-4; for inhibition at 16 µg/mL: NB4, 16 μg/mL compound, 72 h, read-out: IR (cell proliferation inhibition rate); for IC50: NB4, 72 h
Source text: as §1, §2

RPMI8226 cell line = assay: multiple myeloma cell growth inhibition, MTT; format: cell-based; settings: Homo sapiens, RPMI-8226; for inhibition at 16 µg/mL: RPMI8226, 16 μg/mL compound, 72 h, read-out: IR (cell proliferation inhibition rate); for IC50: RPMI8226, 72 h
Procedure: Multiple myeloma cell lines: RPMI8226 (multiple myeloma), purchased from Fuxiang Bio-tech Co. Ltd., Shanghai, China.
Obtaining 6000 well-growing cells as above and inoculating them into wells of a 96-well cell culture plate. The culture medium is the 1640 cell culture medium containing 10% fetal bovine serum. After adding the 2-substituted oleanolic acid derivatives of different concentrations and mixing uniformly, placing the plate in a carbon dioxide cell incubator (5% CO2) at 37° C. and incubated for 72 hours. Then the relative number of viable cells is determined by MTT method. In this experiment, cell proliferation inhibition rate in control group (not treated with any compound) is set as 0%.

Hela cell line = assay: solid tumor cell growth inhibition, MTT; format: cell-based; settings: Homo sapiens, 72 h; for IC50: HeLa; for inhibition at 16 µg/mL: Hela, 16 μg/mL compound, read-out: IR (cell proliferation inhibition rate)
Procedure: (§3) Hep-2 (laryngeal carcinoma), A549 (human lung cancer), CaES-17 (esophageal cancer cell), PC-3 (prostate cancer), CNE (nasopharyngeal carcinoma cell), and SK-OV-3 (ovarian cancer cell), all of which are purchased from China Center For Type Culture Collection; RKO (human colon adenocarcinoma cell), MGC 803 (human gastric cancer cell), MG63 (osteosarcoma) and U87 MG (malignant glioma cell), all of which are purchased from Fuxiang Bio-tech Co. Ltd., Shanghai, China; PANC-1 (pancreatic cancer), Hep G2 (human liver cancer cell), Becap37 (human breast cancer cell), and Hela (human cervical cancer cell), all of which are donated by Cancer Research Institute of Zhejiang University, China.
(§4) Obtaining 4000 well-growing human solid tumor cells and inoculating them into wells of a 96-well cell culture plate. The culture medium is DMEM High Glucose cell culture medium containing 10% fetal bovine serum. The plate is placed in a carbon dioxide cell incubator (5% CO2) at 37° C. for 24 hours. After adding the 2-substituted oleanolic acid derivatives of different concentrations and mixing uniformly, the plate is placed in a carbon dioxide cell incubator (5% CO2) at 37° C. and incubated for 72 hours. Then the relative number of the living cells is determined by MTT method. In this experiment, the cell proliferation inhibition rate in control group (not treated with any compound) is set as 0%.

MGC 803 cell line = assay: solid tumor cell growth inhibition, MTT; format: cell-based; settings: Homo sapiens; for inhibition at 16 µg/mL: MGC 803, 16 μg/mL compound, 72 h, read-out: IR (cell proliferation inhibition rate); for IC50: MGC 803, 72 h
Procedure: as §3, §4

U87 MG cell line = assay: solid tumor cell growth inhibition, MTT; format: cell-based; settings: Homo sapiens, U-87 MG, 72 h; for inhibition at 16 µg/mL: 16 μg/mL compound, read-out: IR (cell proliferation inhibition rate)
Procedure: as §3, §4

A549 cell line = assay: solid tumor cell growth inhibition, MTT; format: cell-based; settings: Homo sapiens; for IC50: A549, 72 h; for inhibition at 16 µg/mL: A549, 16 μg/mL compound, 72 h, read-out: IR (cell proliferation inhibition rate)
Procedure: as §3, §4

Hep-2 cell line = assay: solid tumor cell growth inhibition, MTT; format: cell-based; settings: Homo sapiens; for IC50: HEp-2, 72 h; for inhibition at 16 µg/mL: Hep-2, 16 μg/mL compound, 72 h, read-out: IR (cell proliferation inhibition rate)
Procedure: as §3, §4

RKO cell line = assay: solid tumor cell growth inhibition, MTT; format: cell-based; settings: Homo sapiens, 72 h; for inhibition at 16 µg/mL: 16 μg/mL compound, read-out: IR (cell proliferation inhibition rate)
Procedure: as §3, §4

CNE cell line = assay: solid tumor cell growth inhibition, MTT; format: cell-based; settings: Homo sapiens, 72 h; for inhibition at 16 µg/mL: 16 μg/mL compound, read-out: IR (cell proliferation inhibition rate)
Procedure: as §3, §4

PANC-1 cell line = assay: solid tumor cell growth inhibition, MTT; format: cell-based; settings: Homo sapiens; for IC50: PANC-1, 72 h; for inhibition at 16 µg/mL: PANC-1, 16 μg/mL compound, 72 h, read-out: IR (cell proliferation inhibition rate)
Procedure: as §3, §4

MG-63 cell line = assay: solid tumor cell growth inhibition, MTT; format: cell-based; settings: Homo sapiens; for IC50: MG-63, 72 h; for inhibition at 16 µg/mL: MG-63, 16 μg/mL compound, 72 h, read-out: IR (cell proliferation inhibition rate)
Procedure: as §3, §4

CaES-17 cell line = assay: solid tumor cell growth inhibition, MTT; format: cell-based; settings: Homo sapiens, CaEs17; for inhibition at 16 µg/mL: CaES-17, 16 μg/mL compound, 72 h, read-out: IR (cell proliferation inhibition rate); for IC50: CaES-17, 72 h
Procedure: as §3, §4

Becap37 cell line = assay: solid tumor cell growth inhibition, MTT; format: cell-based; settings: Homo sapiens; for inhibition at 16 µg/mL: Becap37, 16 μg/mL compound, 72 h, read-out: IR (cell proliferation inhibition rate); for IC50: Becap37, 72 h
Procedure: as §3, §4

SK-OV-3 cell line = assay: solid tumor cell growth inhibition, MTT; format: cell-based; settings: Homo sapiens; for IC50: SK-OV-3, 72 h; for inhibition at 16 µg/mL: SK-OV-3, 16 μg/mL compound, 72 h, read-out: IR (cell proliferation inhibition rate)
Procedure: as §3, §4

PC-3 cell line = assay: solid tumor cell growth inhibition, MTT; format: cell-based; settings: Homo sapiens; for IC50: PC-3, 72 h; for inhibition at 16 µg/mL: PC-3, 16 μg/mL compound, 72 h, read-out: IR (cell proliferation inhibition rate)
Procedure: as §3, §4

Hep G2 cell line = assay: solid tumor cell growth inhibition, MTT; format: cell-based, human; settings: Homo sapiens; for inhibition at 16 µg/mL: HepG2, 72 h, Hep G2, 16 μg/mL compound, 72 h, read-out: IR (cell proliferation inhibition rate); for IC50: HepG2, Hep G2, 72 h
Procedure: as §3, §4

Row | Structure (SMILES) | inhibition at 16 µg/mL (Kasumi-1 cell line) [%] | IC50 (Kasumi-1 cell line) [µg/mL] | IC50 (H9 cell line) [µg/mL] | inhibition at 16 µg/mL (H9 cell line) [%] | IC50 (K562/adr cell line) [µg/mL] | inhibition at 16 µg/mL (K562/adr cell line) [%] | inhibition at 16 µg/mL (Jurkat cell line) [%] | IC50 (Jurkat cell line) [µg/mL] | inhibition at 16 µg/mL (NB4 cell line) [%] | IC50 (NB4 cell line) [µg/mL] | inhibition at 16 µg/mL (RPMI8226 cell line) [%] | IC50 (RPMI8226 cell line) [µg/mL] | IC50 (Hela cell line) [µg/mL] | inhibition at 16 µg/mL (Hela cell line) [%] | inhibition at 16 µg/mL (MGC 803 cell line) [%] | IC50 (MGC 803 cell line) [µg/mL] | inhibition at 16 µg/mL (U87 MG cell line) [%] | IC50 (U87 MG cell line) [µg/mL] | IC50 (A549 cell line) [µg/mL] | inhibition at 16 µg/mL (A549 cell line) [%] | other results
1 | COC(=O)[C@]12CCC(C)(C)CC1C1=CCC3[C@@]4(C)CC(C(=O)NCCCN5CCCC5)C(=O)C(C)(C)C4CC[C@@]3(C)[C@]1(C)CC2 (some centres unmarked) [BS-OA-016] | 99.1 | 3.76 (≈ 6.04 µM) | 2.96 (≈ 4.75 µM) | 95.4 | 0.52 (≈ 0.835 µM) | 97.8 | 95.1 | 2.38 (≈ 3.82 µM) | 99.8 | 2.94 (≈ 4.72 µM) | 99 | 1.15 (≈ 1.85 µM) | 3.78 (≈ 6.07 µM) | 98 | 99.1 | 3 (≈ 4.82 µM) | 100 | 2.45 (≈ 3.93 µM) | 2.45 (≈ 3.93 µM) | 96.8 | IC50 (Hep-2 cell line): 5.85 µg/mL (≈ 9.39 µM); inhibition at 16 µg/mL (Hep-2 cell line): 97.2%; inhibition at 16 µg/mL (RKO cell line): 99.4%; IC50 (RKO cell line): 3.33 µg/mL (≈ 5.35 µM); inhibition at 16 µg/mL (CNE cell line): 99.4%; IC50 (CNE cell line): 4.07 µg/mL (≈ 6.53 µM); IC50 (PANC-1 cell line): 4.38 µg/mL (≈ 7.03 µM); inhibition at 16 µg/mL (PANC-1 cell line): 98.5%; IC50 (MG-63 cell line): 4.35 µg/mL (≈ 6.98 µM); inhibition at 16 µg/mL (MG-63 cell line): 100%; inhibition at 16 µg/mL (CaES-17 cell line): 99.4%; IC50 (CaES-17 cell line): 3.93 µg/mL (≈ 6.31 µM); inhibition at 16 µg/mL (Becap37 cell line): 99.5%; IC50 (Becap37 cell line): 5.12 µg/mL (≈ 8.22 µM); IC50 (SK-OV-3 cell line): 5.04 µg/mL (≈ 8.09 µM); inhibition at 16 µg/mL (SK-OV-3 cell line): 99.5%; IC50 (PC-3 cell line): 5.06 µg/mL (≈ 8.12 µM); inhibition at 16 µg/mL (PC-3 cell line): 99.8%; inhibition at 16 µg/mL (Hep G2 cell line): > 96%; IC50 (Hep G2 cell line): 2.58 µg/mL (≈ 4.14 µM)
2 | COC(=O)[C@]12CCC(C)(C)CC1C1=CCC3[C@@]4(C)CC(C(=O)NCCc5cccnc5)C(=O)C(C)(C)C4CC[C@@]3(C)[C@]1(C)CC2 (some centres unmarked) [BS-OA-027] | 72.2 | 12.4 (≈ 20.1 µM) | 7.72 (≈ 12.5 µM) | 92.5 | 3.7 (≈ 6 µM) | 82.6 | 83.4 | 9.85 (≈ 16 µM) | 93.8 | 4.57 (≈ 7.41 µM) | 86.5 | 6.1 (≈ 9.89 µM) | 10.8 (≈ 17.4 µM) | 62 | 80.1 | 9.96 (≈ 16.1 µM) | 48.7 | 16 (≈ 25.9 µM) | > 16 | 45.6 | IC50 (Hep-2 cell line): > 16 µg/mL; inhibition at 16 µg/mL (Hep-2 cell line): 35.5%; inhibition at 16 µg/mL (RKO cell line): 46.8%; IC50 (RKO cell line): 16 µg/mL (≈ 25.9 µM); inhibition at 16 µg/mL (CNE cell line): 51.3%; IC50 (CNE cell line): 15.6 µg/mL (≈ 25.3 µM); IC50 (PANC-1 cell line): > 16 µg/mL; inhibition at 16 µg/mL (PANC-1 cell line): 36.9%; IC50 (MG-63 cell line): > 16 µg/mL; inhibition at 16 µg/mL (MG-63 cell line): 25.4%; inhibition at 16 µg/mL (CaES-17 cell line): 49.5%; IC50 (CaES-17 cell line): 17 µg/mL (≈ 27.5 µM); inhibition at 16 µg/mL (Becap37 cell line): 34.3%; IC50 (Becap37 cell line): > 16 µg/mL; IC50 (SK-OV-3 cell line): 6.63 µg/mL (≈ 10.7 µM); inhibition at 16 µg/mL (SK-OV-3 cell line): 91.6%; IC50 (PC-3 cell line): 7.79 µg/mL (≈ 12.6 µM); inhibition at 16 µg/mL (PC-3 cell line): 68.9%; inhibition at 16 µg/mL (Hep G2 cell line): 51.4%; IC50 (Hep G2 cell line): 15.6 µg/mL (≈ 25.3 µM)
